pEC50: −log10 of the molar value. The source made the active and inactive calls. The calls are words filed in the database; no cut-off is given here. Peptide text beside a SMILES is read from it.
How the values were obtained:
[1] = target: T1, RYamide receptor (Drosophila melanogaster) (UniProt P25931); test: Agonist activity at Drosophila melanogaster RYamide receptor expressed in wild type CHO-K1 cells assessed as increase in calcium level at 0.01 mM after 20 secs by luminescence assay; format: cell-based
T1 sequence (whole entry): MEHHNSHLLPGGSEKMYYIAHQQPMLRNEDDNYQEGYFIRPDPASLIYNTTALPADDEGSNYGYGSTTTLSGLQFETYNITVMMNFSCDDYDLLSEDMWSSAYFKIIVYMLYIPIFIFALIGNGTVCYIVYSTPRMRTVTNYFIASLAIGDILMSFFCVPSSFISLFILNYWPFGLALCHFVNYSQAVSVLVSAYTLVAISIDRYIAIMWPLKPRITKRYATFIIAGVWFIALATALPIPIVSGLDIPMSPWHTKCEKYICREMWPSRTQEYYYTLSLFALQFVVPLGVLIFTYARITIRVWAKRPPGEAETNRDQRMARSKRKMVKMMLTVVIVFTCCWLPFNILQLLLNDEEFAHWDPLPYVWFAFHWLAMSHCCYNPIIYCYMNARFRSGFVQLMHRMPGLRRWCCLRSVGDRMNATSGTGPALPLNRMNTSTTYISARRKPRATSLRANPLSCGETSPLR

[2] = target: T1, RYamide receptor (Drosophila melanogaster); test: Partial agonist activity at Drosophila melanogaster RYamide receptor expressed in wild type CHO-K1 cells assessed as increase in calcium level at 5 uM after 20 secs by luminescence assay relative to RYamide-1; format: cell-based
[3] = target: T2, RYamide receptor (Drosophila melanogaster, UniProt P25931); test: Agonist activity at Drosophila melanogaster RYamide receptor expressed in wild type CHO-K1 cells assessed as increase in calcium level after 20 secs by luminescence assay; format: cell-based
T2 sequence (P25931 whole entry): T1 sequence (whole entry)

[4] = target: T3, Neuropeptide F receptor (Drosophila melanogaster) (UniProt Q9VNM1); test: Agonist activity at Drosophila melanogaster NPFR1 expressed in wild type CHO-K1 cells assessed as increase in calcium level at low nanomolar concentration after 20 secs by luminescence assay; format: functional, cell-based
T3 sequence (whole entry): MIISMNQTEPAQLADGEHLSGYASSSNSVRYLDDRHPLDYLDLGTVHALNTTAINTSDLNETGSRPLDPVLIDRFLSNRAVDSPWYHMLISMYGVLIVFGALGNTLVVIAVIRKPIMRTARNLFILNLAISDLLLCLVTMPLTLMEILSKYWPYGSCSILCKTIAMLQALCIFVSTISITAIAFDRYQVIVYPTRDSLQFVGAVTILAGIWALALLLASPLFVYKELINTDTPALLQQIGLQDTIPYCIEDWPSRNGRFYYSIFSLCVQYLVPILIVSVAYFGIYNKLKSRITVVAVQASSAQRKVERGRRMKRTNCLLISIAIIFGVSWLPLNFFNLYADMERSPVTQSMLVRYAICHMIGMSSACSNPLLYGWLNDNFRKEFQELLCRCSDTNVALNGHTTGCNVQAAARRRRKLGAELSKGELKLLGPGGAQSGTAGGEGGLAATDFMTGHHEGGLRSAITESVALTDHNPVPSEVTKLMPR

Row | SMILES | Activity [1] | Activity [2] | pEC50 [3] | Activity [4]
1 | Cc1noc(C)c1CN1CC(Cc2ccccc2)NC(=O)c2nn(CCC3CCN(C(=O)OC(C)(C)C)CC3)cc21 (stereo not drawn) | Active | 40% | 5.23 | –
2 | CC(C)CN1C[C@H](CCCCN)NC(=S)c2nn(CC(C)C)cc21 | Active | 40% | 5.17 | –
3 | CC(C)CN1C[C@H](CCCCN)N=C(SCCC(N)=O)c2nn(CC(C)C)cc21 | Active | 40% | 5.21 | –
4 | CSCC[C@H](NC(=O)[C@@H](NC(=O)[C@H](CC(N)=O)NC(=O)[C@@H](NC(=O)[C@H](CC(=O)O)NC(=O)[C@H](CC(N)=O)NC(=O)[C@H](CCCCN)NC(=O)[C@H](CCCNC(=N)N)NC(=O)[C@@H]1CCCN1C(=O)[C@@H]1CCCN1C(=O)[C@H](CCCNC(=N)N)NC(=O)[C@H](CO)NC(=O)[C@H](CC(N)=O)NC(=O)[C@@H](N)CO)C(C)C)[C@@H](C)O)C(=O)N[C@@H](C)C(=O)N[C@@H](CC(=O)O)C(=O)N[C@@H](C)C(=O)N[C@@H](Cc1ccc(O)cc1)C(=O)N[C@@H](CCCCN)C(=O)N[C@@H](Cc1ccccc1)C(=O)N[C@@H](CC(C)C)C(=O)N[C@@H](CCC(N)=O)C(=O)N[C@@H](CC(=O)O)C(=O)N[C@@H](CC(C)C)C(=O)N[C@@H](CC(=O)O)C(=O)N[C@H](C(=O)N[C@@H](Cc1ccc(O)cc1)C(=O)N[C@@H](Cc1ccc(O)cc1)C(=O)NCC(=O)N[C@@H](CC(=O)O)C(=O)N[C@@H](CCCNC(=N)N)C(=O)N[C@@H](C)C(=O)N[C@@H](CCCNC(=N)N)C(=O)N[C@H](C(=O)N[C@@H](CCCNC(=N)N)C(=O)N[C@@H](Cc1ccccc1)C(=O)O)C(C)C)[C@@H](C)O (H-SNSRPPRKNDVNTMADAYKFLQDLDTYYGDRARVRF-OH) | – | – | – | Active
5 | CC(C)CN1C[C@@H](CCCCN)N=C(SCCC(=O)NN)c2nn(CC(C)C)cc21 | Active | 40% | 4.68 | –

Source: ChEMBL document CHEMBL3853332, “Pyrazolodiazepine derivatives with agonist activity toward Drosophila RYamide receptor” (Bioorg Med Chem Lett, 2016)
